Patent US6825209B2, “Compounds having unique CB1 receptor binding selectivity and methods for their production and use” (Research Triangle Institute, priority 2002, dated 2004)
Where “and” joins values, the source holds several entries; their conditions need not be identical. Equal values may be shown once. Read-outs that look alike come from different tables or passages of the source.

Key:
cannabinoid receptors = target: T1, cannabinoid receptors (Mus musculus, UniProt P47746); experiment: Mouse vas deferens tissue assay (WIN55212-2 as agonist); details: for % Inverse Effect: in the absence of WIN55212-2; for Dextral Shift: shift of the WIN55212-2 dose response curve
T1 construct: mediated by cannabinoid receptors located on prejunctional neurones; from tissue; host or cells: mouse isolated vas deferens
Description: Pharmacological characterization in isolated mouse vas deferens.
Introduction. The mouse isolated vas deferens can be used to determine both the potency and efficacy (maximum degree of inhibition produced) of cannabinoid receptor agonists. Because of its high sensitivity, this assay usually requires only microgram quantities of test material.
The inhibitory effect of cannabinoids on electrically evoked contractions is thought to be mediated by cannabinoid receptors located on prejunctional neurones rather than on the smooth muscle.
Experimental design. Isolated mouse vasa deferentia were used to determine the potency and efficacy of test compounds as inhibitors of electrically evoked contractions. […] Ability to antagonize was expressed in terms of the association constant (Kb) for the forward reaction between antagonist and cannabinoid receptors.
Methods. […] Electrical field stimulation was between platinum electrodes located at the upper and lower ends of each bath. The stimuli were generated by a Grass S48 stimulator, then amplified (Med-Lab channel attenuator) and finally divided to yield separate outputs to four organ baths (Med-Lab Stimusplitter). All contractions were recorded isometrically.
Concentration-response curves were constructed cumulatively.

CB1 receptor = target: T2, CB1 receptor (Rattus norvegicus, UniProt P20272); experiment: Radioligand displacement in whole rat brain (CB1) membrane preparations; type: binding; details: Tables 1 and 2
T2 construct: Whole rat brains or dissected regions from live CD rats; tissue Charles River or Pel-Freez Biologicals; host or cells: whole rat brain (CD rats), P2 membrane
Method in brief: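 Washed P2 membranes from whole rat brain (ca. 0.2 mg/mL) in 50 mM Tris.HCl, 1 mM EDTA, 3 mM MgCl2, pH 7.4 were incubated with radioligand and compound for 1 h at 30 °C, then filtered. IC50 values came from one- or two-site nonlinear fits and were converted to Ki by Cheng-Prusoff. Duplicates were run across 3–6 experiments.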

CB1 versus CB2 receptors = experiment: Relative selectivity of the analogs for CB1 versus CB2 receptors; details: CB1 versus CB2 binding, Tables 1, 6 and 7
Description: Human CB2 receptor affinity. The relative selectivity of the analogs for CB1 versus CB2 receptors varied modestly regardless of the structural modifications examined to date.

[1] = isolated mouse vas deferens, WIN55212-2 as agonist, Schild equation, read-out: Kb
[2] = read-out: Ki, displacement of 3H-CP55940, whole rat brain membranes, radioligand 3H-CP55940
[3] = read-out: Ki, displacement of 3H-SR141716A, whole rat brain membranes, radioligand 3H-SR141716A
[4] = whole rat brain membranes, radioligand 3H-CP55940
[5] = whole rat brain membranes, radioligand 3H-SR141716A
[6] = Ki, displacement of 3H-WIN55212-2, whole rat brain membranes, radioligand 3H-WIN55212-2
[7] = whole rat brain membranes, radioligand 3H-WIN55212-2

T2 sequence (P20272 whole entry): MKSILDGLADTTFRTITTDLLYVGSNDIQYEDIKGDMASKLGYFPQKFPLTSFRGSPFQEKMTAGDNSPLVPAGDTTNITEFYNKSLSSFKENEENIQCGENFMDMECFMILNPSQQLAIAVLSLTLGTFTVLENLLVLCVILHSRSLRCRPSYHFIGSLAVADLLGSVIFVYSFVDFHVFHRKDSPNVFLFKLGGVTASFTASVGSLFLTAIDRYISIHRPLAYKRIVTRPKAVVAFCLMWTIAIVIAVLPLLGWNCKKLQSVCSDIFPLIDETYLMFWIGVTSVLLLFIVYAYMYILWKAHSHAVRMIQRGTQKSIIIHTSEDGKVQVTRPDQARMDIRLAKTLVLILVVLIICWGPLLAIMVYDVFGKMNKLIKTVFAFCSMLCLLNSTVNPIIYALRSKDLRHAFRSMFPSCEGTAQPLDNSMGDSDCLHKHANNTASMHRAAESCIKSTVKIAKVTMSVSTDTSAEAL
T1 sequence (P47746 whole entry): as the sequence (P20272 whole entry) above, with E95D counted along it

Kb (cannabinoid receptors; [1]) | % Inverse Effect (cannabinoid receptors; isolated mouse vas deferens) | Dextral Shift (cannabinoid receptors; isolated mouse vas deferens) | Ki (CB1 receptor; [2]) | Ki (CB1 receptor; [3]) | Max. Disp. %, 3H-CP55940 (CB1 receptor; [4]) | Max. Disp. %, 3H-SR141716A (CB1 receptor; [5]) | Ki (CB1 receptor; [6]) | Max. Disp. %, 3H-WIN55212-2 (CB1 receptor; [7]) | CB1 selectivity (CB1 versus CB2) (CB1 versus CB2 receptors) | SMILES | Kb (cannabinoid receptors) | Kb (cannabinoid receptors; isolated mouse vas deferens, WIN55212-2 as agonist, Schild equation) | Dextral Shift (cannabinoid receptors; isolated mouse vas deferens, listed as heptyl analog) | Ki (CB1 receptor; Ki, displacement of 3H-CP55940, whole rat brain membranes, radioligand 3H-CP55940) | Ki (CB1 receptor; Ki, displacement of 3H-SR141716A, whole rat brain membranes, radioligand 3H-SR141716A)
21.2 nM | 28.2% | no effect | 13.4 nM | 12.8 nM | 91.9% | 100% | 32.8 nM | 90.8% |  | CCCCNC(=O)c1nn(-c2ccc(Cl)cc2Cl)c(-c2ccc(Cl)cc2)c1C [MF9725-64-17] |  |  |  |  | 
 |  |  | 29.4 nM | 12.9 nM | 88.3% | 100% | 36.1 nM | 90.6% |  | Cc1c(C(=O)NC(C)C)nn(-c2ccc(Cl)cc2Cl)c1-c1ccc(Cl)cc1 [MF9725-65-11] |  |  |  |  | 
 |  |  | 11.5 nM | 9.22 nM | 96.7% | 100% | 46.4 nM | 90.9% |  | Cc1c(C(=O)NCC(C)C)nn(-c2ccc(Cl)cc2Cl)c1-c1ccc(Cl)cc1 [MF9725-68-10] |  |  |  |  | 
15.4 nM | 30.1% | no effect | 18.2 nM | 10.7 nM | 87.3% | 98.6% | 16.6 nM | 77.9% |  | CCCCCCNC(=O)c1nn(-c2ccc(Cl)cc2Cl)c(-c2ccc(Cl)cc2)c1C [MF9725-132-25] |  |  |  |  | 

Further lines, the molecule ahead of its results:

SMILES | Kb (cannabinoid receptors; [1]) | % Inverse Effect (cannabinoid receptors; isolated mouse vas deferens) | Dextral Shift (cannabinoid receptors; isolated mouse vas deferens) | Ki (CB1 receptor; [2]) | Ki (CB1 receptor; [3]) | Max. Disp. %, 3H-CP55940 (CB1 receptor; [4]) | Max. Disp. %, 3H-SR141716A (CB1 receptor; [5]) | Ki (CB1 receptor; [6]) | Max. Disp. %, 3H-WIN55212-2 (CB1 receptor; [7]) | CB1 selectivity (CB1 versus CB2) (CB1 versus CB2 receptors) | Kb (cannabinoid receptors) | Kb (cannabinoid receptors; isolated mouse vas deferens, WIN55212-2 as agonist, Schild equation) | Dextral Shift (cannabinoid receptors; isolated mouse vas deferens, listed as heptyl analog) | Ki (CB1 receptor; Ki, displacement of 3H-CP55940, whole rat brain membranes, radioligand 3H-CP55940) | Ki (CB1 receptor; Ki, displacement of 3H-SR141716A, whole rat brain membranes, radioligand 3H-SR141716A)
Cc1c(C(=O)NN2CCOCC2)nn(-c2ccc(Cl)cc2Cl)c1-c1ccc(Cl)cc1 [MF9725-33D] | 12.5 nM | 82.5% | 26.3 | 22.9 nM | 21 nM | 96.2% | 100% |  |  |  |  |  |  |  | 
Cc1c(C(=O)NC2CCCCC2)nn(-c2ccc(Cl)cc2Cl)c1-c1ccc(Cl)cc1 [MF9725-66-11] | 1.2 nM | 55.5% | 26.7 | 2.46 nM | 1.07 nM | 96.1% | 100% | 2.23 nM | 92.6% | 93 fold |  |  |  |  | 
CCCCCCCNC(=O)c1nn(-c2ccc(Cl)cc2Cl)c(-c2ccc(Cl)cc2)c1C [MF9725-133-25] |  | 50.6% and 37.8% |  |  |  | 81.7% | 97.9% | 28.8 nM | 69.6% |  | 83.9 nM | no effect | failed to produce an effect | 46.2 nM | 19 nM
